This note sets out measurements from ChEMBL document CHEMBL4507319 (2021).

Active and inactive are the calls of the source. No cut-off for these calls is given here. A value given as a limit tells only on which side of the number the result lay.

Assay [1] has as its target Activated CDC42 kinase 1 (Homo sapiens) (UniProt Q07912). To be noted: Compound concentration 1000.0 nM.
Assay [2] concerns the target Serine/threonine-protein kinase PAK 2 (Homo sapiens) (UniProt Q13177). To be noted: Compound concentration 1000.0 nM.
Assay [3] deals with Dual specificity mitogen-activated protein kinase kinase 4 (Homo sapiens) (UniProt P45985). Particulars: Compound concentration 1000.0 nM.
For assay [4], the target named is Ribosomal protein S6 kinase alpha-5 (Homo sapiens, UniProt O75582). To be noted: Compound concentration 1000.0 nM.
Assay [5] has as its target Membrane-associated tyrosine- and threonine-specific cdc2-inhibitory kinase (Homo sapiens) (UniProt Q99640). To be noted: Compound concentration 1000.0 nM.
Assay [6] addresses Dual specificity mitogen-activated protein kinase kinase 3 (Homo sapiens) (UniProt P46734). Particulars: Compound concentration 1000.0 nM.
The target of assay [7] is Fibroblast growth factor receptor 3 (Homo sapiens) (UniProt P22607). To be noted: Compound concentration 1000.0 nM.
The target of assay [8] is 5'-AMP-activated protein kinase catalytic subunit alpha-1 (Homo sapiens, UniProt Q13131). The experiment in a line: Biochemical PRKAA1 assay with 2 mM ATP (Bayer in house).
In assay [9] the target is Ephrin type-A receptor 5 (Homo sapiens) (UniProt P54756). To be noted: Compound concentration 1000.0 nM.
For assay [10], the target named is T1, Ephrin type-B receptor 2 (Homo sapiens) (UniProt P29323).
T1 sequence (whole entry): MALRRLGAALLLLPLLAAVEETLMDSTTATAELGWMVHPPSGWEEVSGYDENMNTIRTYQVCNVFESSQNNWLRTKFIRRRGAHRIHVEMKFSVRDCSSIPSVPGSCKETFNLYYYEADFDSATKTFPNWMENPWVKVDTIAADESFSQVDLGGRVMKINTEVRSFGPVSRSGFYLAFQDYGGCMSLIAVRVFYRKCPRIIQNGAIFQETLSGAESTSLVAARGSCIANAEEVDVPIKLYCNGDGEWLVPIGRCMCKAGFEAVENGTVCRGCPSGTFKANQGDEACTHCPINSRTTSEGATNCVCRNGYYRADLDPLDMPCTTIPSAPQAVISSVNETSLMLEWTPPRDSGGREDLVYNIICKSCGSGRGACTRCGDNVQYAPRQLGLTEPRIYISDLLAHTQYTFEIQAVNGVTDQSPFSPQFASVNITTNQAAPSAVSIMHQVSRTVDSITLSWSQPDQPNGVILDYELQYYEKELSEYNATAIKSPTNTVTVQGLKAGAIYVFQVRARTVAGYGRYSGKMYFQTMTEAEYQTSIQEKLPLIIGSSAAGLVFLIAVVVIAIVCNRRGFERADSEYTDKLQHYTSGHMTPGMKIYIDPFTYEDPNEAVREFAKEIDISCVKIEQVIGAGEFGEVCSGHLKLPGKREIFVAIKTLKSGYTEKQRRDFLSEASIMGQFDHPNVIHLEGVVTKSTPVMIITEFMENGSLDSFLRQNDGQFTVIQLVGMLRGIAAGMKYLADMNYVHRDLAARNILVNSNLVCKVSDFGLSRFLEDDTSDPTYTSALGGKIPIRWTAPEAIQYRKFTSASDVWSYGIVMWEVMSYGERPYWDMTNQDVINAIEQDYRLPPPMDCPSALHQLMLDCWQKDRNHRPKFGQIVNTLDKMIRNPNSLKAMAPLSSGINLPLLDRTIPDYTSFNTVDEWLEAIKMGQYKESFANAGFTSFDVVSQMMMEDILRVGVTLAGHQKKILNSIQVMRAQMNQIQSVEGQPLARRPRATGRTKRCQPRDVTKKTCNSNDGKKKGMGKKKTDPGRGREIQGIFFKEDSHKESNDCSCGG
Particulars: Compound concentration 1000.0 nM.

Assay [11] has as its target Tyrosine-protein kinase ABL1 (Homo sapiens) (UniProt P00519). Particulars: Compound concentration 1000.0 nM.
In assay [12] the target is Dual specificity tyrosine-phosphorylation-regulated kinase 1B (Homo sapiens) (UniProt Q9Y463). Particulars: Compound concentration 1000.0 nM.
Assay [13] has as its target Serine/threonine-protein kinase MARK1 (Homo sapiens) (UniProt Q9P0L2). Particulars: Compound concentration 1000.0 nM.
For assay [14], the target named is Cyclin-dependent kinase 4 (Homo sapiens) (UniProt P11802). To be noted: Compound concentration 1000.0 nM.
For assay [15], the target named is Casein kinase I isoform alpha-like (Homo sapiens) (UniProt Q8N752). Particulars: Compound concentration 1000.0 nM.
For assay [16], the target named is Tyrosine-protein kinase JAK1 (Homo sapiens) (UniProt P23458). To be noted: Compound concentration 1000.0 nM.
The target in assay [17] is T2, Inhibitor of nuclear factor kappa-B kinase subunit beta (Homo sapiens) (UniProt O14920).
T2 sequence (whole entry): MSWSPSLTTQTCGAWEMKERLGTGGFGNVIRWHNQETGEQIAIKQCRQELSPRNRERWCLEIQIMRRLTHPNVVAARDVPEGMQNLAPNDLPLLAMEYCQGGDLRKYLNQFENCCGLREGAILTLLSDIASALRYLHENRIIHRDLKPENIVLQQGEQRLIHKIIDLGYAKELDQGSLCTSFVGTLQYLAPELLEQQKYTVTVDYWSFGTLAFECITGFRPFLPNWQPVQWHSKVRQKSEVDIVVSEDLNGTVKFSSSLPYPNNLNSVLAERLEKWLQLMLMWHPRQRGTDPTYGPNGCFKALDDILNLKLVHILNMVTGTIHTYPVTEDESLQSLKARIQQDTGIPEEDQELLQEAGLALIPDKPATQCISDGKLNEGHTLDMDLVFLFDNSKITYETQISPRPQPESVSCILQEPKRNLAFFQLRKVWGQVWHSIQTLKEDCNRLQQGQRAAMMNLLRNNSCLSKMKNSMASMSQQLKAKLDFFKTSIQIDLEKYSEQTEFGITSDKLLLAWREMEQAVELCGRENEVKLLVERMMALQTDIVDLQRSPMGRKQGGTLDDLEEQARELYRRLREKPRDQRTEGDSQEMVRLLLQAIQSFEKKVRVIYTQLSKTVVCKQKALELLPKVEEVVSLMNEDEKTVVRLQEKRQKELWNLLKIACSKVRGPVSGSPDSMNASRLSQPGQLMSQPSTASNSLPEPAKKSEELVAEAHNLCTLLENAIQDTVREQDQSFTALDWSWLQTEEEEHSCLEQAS
Particulars: Compound concentration 1000.0 nM.

Chain of Dual specificity tyrosine-phosphorylation-regulated kinase 1B (Homo sapiens) (Q9Y463 whole entry, looked up): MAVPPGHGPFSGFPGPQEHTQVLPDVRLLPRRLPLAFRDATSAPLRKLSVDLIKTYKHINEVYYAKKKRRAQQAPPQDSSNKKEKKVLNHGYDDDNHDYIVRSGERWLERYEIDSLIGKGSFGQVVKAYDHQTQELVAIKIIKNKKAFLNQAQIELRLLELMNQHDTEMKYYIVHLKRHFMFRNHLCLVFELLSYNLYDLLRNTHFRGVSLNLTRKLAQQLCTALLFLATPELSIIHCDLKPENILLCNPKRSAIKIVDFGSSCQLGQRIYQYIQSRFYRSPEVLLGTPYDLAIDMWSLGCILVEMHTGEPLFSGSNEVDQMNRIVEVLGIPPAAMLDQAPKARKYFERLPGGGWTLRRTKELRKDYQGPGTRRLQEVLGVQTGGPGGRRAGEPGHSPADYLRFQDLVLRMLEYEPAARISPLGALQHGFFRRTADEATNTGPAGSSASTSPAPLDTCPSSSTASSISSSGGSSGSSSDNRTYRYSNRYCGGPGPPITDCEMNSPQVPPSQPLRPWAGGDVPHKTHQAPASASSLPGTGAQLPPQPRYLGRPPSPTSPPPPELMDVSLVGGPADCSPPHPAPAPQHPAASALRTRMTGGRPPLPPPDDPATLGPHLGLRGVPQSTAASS
Chain of Casein kinase I isoform alpha-like (Homo sapiens) (Q8N752 whole entry, canonical isoform): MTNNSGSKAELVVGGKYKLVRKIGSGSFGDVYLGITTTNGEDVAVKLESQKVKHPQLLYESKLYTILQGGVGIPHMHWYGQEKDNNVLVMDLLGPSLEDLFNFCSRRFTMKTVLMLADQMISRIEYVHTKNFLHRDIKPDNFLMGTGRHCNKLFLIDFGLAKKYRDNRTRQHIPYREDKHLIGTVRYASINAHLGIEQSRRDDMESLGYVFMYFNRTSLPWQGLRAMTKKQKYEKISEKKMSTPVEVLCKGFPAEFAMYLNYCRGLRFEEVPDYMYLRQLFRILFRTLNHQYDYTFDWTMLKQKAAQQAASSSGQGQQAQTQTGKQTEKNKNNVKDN
Chain of Ephrin type-A receptor 5 (Homo sapiens) (P54756 whole entry): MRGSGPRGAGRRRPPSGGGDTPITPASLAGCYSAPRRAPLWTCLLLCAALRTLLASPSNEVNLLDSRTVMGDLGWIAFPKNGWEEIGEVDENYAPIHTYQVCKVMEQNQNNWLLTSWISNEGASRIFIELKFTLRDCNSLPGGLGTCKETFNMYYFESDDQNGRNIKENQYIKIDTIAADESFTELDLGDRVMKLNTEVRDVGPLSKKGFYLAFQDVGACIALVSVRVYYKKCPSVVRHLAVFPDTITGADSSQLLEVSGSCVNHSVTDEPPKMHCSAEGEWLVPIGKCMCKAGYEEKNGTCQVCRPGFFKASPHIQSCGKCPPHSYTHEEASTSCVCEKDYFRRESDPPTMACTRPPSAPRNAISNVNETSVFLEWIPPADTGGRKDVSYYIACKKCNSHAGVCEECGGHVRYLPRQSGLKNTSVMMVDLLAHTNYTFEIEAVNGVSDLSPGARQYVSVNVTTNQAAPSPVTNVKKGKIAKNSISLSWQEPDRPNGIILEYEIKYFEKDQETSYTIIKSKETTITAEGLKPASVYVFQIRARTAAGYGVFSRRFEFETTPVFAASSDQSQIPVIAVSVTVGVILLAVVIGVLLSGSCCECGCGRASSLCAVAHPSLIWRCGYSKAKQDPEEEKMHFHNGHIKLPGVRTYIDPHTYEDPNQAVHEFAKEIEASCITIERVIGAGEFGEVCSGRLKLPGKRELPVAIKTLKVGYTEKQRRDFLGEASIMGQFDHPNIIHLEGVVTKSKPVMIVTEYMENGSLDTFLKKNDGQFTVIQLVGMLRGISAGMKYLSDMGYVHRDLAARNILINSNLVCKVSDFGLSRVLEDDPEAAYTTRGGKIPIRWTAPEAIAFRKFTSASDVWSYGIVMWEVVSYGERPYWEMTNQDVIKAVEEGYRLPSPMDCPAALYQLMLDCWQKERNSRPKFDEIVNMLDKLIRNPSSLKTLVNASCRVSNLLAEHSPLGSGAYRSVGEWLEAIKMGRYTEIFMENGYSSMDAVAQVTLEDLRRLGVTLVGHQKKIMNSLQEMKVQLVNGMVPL
Chain of Tyrosine-protein kinase JAK1 (Homo sapiens) (P23458 whole entry): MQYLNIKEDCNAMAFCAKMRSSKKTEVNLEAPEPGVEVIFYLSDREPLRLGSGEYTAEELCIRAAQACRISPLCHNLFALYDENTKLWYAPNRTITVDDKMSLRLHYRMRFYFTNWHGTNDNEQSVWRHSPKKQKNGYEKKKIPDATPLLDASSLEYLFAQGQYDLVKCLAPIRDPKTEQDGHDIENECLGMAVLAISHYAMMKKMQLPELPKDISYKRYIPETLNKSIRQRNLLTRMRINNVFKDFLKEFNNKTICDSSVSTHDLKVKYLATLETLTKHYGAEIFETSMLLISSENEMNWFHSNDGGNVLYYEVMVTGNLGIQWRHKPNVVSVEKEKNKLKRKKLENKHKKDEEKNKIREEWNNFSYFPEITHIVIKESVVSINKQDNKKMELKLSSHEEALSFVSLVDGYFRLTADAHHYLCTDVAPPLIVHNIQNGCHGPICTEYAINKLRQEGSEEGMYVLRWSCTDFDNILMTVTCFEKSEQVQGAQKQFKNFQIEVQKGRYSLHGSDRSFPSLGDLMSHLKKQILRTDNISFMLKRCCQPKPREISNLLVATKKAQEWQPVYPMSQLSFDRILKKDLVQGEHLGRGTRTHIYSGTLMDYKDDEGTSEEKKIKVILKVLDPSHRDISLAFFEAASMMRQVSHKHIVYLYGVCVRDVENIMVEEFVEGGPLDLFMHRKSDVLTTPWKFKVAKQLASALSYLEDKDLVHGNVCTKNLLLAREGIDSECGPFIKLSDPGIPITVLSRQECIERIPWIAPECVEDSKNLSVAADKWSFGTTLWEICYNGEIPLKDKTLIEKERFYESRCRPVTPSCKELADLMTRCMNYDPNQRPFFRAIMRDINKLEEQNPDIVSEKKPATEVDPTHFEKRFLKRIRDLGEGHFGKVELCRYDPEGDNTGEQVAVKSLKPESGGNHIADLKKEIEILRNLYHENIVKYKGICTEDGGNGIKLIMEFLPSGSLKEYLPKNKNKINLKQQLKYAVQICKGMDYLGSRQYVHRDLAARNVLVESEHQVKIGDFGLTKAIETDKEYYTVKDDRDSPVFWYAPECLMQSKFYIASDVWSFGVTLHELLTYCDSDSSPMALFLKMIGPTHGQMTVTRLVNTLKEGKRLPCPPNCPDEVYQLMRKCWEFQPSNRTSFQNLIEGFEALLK
Chain of Dual specificity mitogen-activated protein kinase kinase 4 (Homo sapiens) (P45985 whole entry): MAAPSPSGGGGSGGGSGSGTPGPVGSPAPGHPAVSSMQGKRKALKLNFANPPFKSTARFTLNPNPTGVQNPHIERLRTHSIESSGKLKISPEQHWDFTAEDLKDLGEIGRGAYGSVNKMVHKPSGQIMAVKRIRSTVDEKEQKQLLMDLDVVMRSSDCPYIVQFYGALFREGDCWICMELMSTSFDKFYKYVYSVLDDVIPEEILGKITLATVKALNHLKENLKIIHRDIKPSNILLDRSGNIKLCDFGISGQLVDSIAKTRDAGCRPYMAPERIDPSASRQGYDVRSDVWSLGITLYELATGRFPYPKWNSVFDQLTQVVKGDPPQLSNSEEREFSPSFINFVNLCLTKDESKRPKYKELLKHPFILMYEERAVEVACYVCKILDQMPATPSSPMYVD
Chain of Dual specificity mitogen-activated protein kinase kinase 3 (Homo sapiens) (P46734 whole entry): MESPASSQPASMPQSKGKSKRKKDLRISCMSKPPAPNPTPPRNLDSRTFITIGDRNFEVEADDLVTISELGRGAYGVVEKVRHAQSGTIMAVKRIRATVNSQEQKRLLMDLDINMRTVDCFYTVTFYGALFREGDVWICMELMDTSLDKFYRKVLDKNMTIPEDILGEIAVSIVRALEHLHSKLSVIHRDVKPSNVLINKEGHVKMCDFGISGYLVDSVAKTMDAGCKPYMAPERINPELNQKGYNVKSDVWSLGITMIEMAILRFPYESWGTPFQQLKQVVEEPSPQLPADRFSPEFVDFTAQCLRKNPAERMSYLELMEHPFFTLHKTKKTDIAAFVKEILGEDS
Chain of Ribosomal protein S6 kinase alpha-5 (O75582 whole entry, looked up): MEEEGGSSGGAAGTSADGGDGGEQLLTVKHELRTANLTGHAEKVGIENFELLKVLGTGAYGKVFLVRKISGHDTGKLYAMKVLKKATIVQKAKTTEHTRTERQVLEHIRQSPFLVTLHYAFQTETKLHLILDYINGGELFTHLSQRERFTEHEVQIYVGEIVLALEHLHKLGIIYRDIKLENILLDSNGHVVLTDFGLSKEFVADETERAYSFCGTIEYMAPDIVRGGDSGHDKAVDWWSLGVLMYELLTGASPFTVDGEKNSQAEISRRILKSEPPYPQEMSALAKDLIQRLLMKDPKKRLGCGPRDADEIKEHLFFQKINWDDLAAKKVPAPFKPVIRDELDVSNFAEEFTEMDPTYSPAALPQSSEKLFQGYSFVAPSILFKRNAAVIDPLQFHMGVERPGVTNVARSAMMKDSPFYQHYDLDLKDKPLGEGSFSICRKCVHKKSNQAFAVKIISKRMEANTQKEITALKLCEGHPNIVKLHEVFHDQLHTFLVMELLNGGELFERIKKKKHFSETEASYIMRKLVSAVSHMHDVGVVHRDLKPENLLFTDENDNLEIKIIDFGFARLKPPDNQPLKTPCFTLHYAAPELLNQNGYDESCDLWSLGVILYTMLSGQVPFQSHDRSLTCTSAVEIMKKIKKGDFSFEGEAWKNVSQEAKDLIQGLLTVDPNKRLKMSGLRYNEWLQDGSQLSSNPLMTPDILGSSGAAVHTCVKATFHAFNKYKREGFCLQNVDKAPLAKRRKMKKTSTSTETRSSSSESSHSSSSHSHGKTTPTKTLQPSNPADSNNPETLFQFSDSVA
Chain of Cyclin-dependent kinase 4 (Homo sapiens) (P11802 whole entry, canonical isoform): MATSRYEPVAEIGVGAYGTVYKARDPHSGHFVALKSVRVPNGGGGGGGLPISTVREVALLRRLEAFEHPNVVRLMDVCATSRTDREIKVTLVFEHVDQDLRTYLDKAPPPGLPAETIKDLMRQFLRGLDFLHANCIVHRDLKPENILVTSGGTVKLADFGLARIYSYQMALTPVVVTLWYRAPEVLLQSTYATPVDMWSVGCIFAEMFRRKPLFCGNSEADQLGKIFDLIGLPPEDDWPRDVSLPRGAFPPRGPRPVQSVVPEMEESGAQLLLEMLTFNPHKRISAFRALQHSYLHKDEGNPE

Regarding `CCc1ccccc1C(=O)Nc1n[nH]c2c(C)c(F)c(C3C(C#N)=C(C)N(C)C(C)=C3C#N)cc12` [BAY-3827], the residual activity is 81% in assay [1]; 75% in [2]; 100% in [3]; 1% in assay [4]; 100% in assay [5]; 97% in assay [6]. Moreover, the residual activity in assay [7] is 93%; in [9] it was 87%; in assay [10], 76%; in assay [11], 78%; in assay [12], 100%; in assay [13] it was 36%. Also, the residual activity in [14] was 98%; in [15], 62%; in assay [16], 91%; in assay [17], 94%. Further, the IC50 in assay [8] is 0.015 µM (active).

As for `CC1=C(C#N)C(c2ccc3c(c2)c(NC(=O)c2ccccc2C)nn3C)C(C#N)=C(C)N1` [BAY-974], the residual activity is 86% in assay [1]; 100% in assay [2]; 79% in [3]; 91% in assay [4]; 99% in assay [5]; 91% in assay [6]. Further, the residual activity in assay [7] was 94%; in [9], 77%; in assay [10], 86%; in assay [11] it was 86%; in [12], 63%; in assay [13], 100%. Further, the residual activity is 100% in [14], 97% in assay [15], 90% in assay [16] and 95% in assay [17]. In addition, in assay [8], the IC50 was > 20 µM (not active).
